{"source": "patent US20230181562A1", "about": "“USE OF A MULTIFUNCTIONAL LIGAND FOR TREATING DRY EYES, MEIBOMIAN GLAND DYSFUNCTIONS AND LACRIMAL GLAND DYSFUNCTIONS” (H4 ORPHAN PHARMA, priority 2020, published 2023)", "key": {"non-mutated CFTR": {"target": "T1, non-mutated CFTR (Homo sapiens, UniProt P13569)", "T1 construct": "host or cells: human epithelial cells (called glandular / lacrimal gland epithelial cells) grown on Snapwell filters", "T1 sequence (P13569 whole entry, change not shown)": "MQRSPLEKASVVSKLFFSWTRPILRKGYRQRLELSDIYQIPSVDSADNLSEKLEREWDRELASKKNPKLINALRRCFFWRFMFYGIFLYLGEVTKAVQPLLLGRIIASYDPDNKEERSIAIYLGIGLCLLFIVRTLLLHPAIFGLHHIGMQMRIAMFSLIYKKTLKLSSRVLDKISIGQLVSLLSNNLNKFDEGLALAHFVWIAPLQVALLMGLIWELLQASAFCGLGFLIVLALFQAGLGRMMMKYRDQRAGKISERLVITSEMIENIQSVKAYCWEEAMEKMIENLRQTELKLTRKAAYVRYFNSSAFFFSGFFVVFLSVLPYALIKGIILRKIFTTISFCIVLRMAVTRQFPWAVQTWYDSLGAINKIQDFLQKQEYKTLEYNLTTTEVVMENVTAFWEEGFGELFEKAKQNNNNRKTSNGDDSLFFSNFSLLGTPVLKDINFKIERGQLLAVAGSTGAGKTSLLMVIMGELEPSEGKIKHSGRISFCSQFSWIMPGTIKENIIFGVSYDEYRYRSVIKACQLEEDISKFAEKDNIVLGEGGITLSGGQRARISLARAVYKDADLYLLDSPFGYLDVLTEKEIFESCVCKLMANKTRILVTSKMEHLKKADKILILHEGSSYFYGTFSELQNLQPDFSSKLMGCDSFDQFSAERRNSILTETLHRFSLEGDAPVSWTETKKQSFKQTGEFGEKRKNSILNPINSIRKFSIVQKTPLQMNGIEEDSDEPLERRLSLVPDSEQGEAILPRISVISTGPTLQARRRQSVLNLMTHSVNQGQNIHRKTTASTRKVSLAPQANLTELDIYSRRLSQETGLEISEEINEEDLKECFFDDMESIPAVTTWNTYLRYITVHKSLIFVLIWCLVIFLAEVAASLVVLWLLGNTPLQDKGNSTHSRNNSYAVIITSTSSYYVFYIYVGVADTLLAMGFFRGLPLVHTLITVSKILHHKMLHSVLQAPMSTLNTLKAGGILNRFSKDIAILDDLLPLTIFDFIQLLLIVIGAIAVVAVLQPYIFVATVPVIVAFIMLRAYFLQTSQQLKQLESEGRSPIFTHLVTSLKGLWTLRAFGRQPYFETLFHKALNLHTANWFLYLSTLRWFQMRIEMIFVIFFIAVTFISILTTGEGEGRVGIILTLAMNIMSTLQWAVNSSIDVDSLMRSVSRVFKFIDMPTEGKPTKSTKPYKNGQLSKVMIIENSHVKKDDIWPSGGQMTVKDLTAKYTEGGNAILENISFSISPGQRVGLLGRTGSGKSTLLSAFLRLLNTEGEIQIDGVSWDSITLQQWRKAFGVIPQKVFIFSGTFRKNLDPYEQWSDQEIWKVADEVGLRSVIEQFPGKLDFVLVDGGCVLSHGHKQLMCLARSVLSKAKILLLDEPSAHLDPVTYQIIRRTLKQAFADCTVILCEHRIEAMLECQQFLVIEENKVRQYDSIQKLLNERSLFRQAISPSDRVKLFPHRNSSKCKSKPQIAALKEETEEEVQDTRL", "test": "Ussing chamber short-circuit current (ion transport via CFTR)", "type": "cell-based", "settings": "for effect of Inh172 on cell potential: CFTR inh172 10 μM; for short circuit current differential after addition of tritoqualine: tritoqualine 10 μM", "excerpt": "To investigate this action on CFTR modulation, the inventors used the Ussing chamber method, invented by the Dane Hans H. Ussing in the late 1950s. This technique makes it possible to study ionic exchanges across an epithelium, as it allows the tissue of interest to be kept alive for a few hours under controlled conditions of temperature and medium. The positioning of the tissue between two half-chambers makes it possible to define an apical compartment (corresponding to the lumen of the organ) and a basolateral compartment (corresponding to the blood compartment) and to investigate exchanges between these two compartments via the tissue.\nThis technique is used as a routine and is particularly well adapted for a pharmacological approach to ionic transport and to search for molecules of therapeutic interest in the context of ionic secretions of epithelial cells. It consists in measuring the transepithelial current (known as the short-circuit current and noted Ise). Ise is expressed in amperes to unit area of the epithelium (Ise in μA/cm^2). The cells are grown on a porous filter for 10 to 15 days at the liquid-liquid interface and then air-liquid interface in order to mimic conditions close to in vivo. The transepithelial resistance is measured regularly when culturing. The higher this resistance is (several hundred ohms), the more the epithelial tissue is junctive, polarised and therefore tight. At the air (apical side)-liquid (basolateral side) interface the epithelial cells polarise and form a tight mat which can be investigated with the Ussing chamber technique. A system with 6 Physiology Instrument® cuvettes allowing 6 experiments in parallel has been used.\nThe inventors have used USSING chambers to analyse the activity of tritoqualine on CFTR of glandular epithelial cells.\nTypical protocols used for human epithelial cells expressing non-mutated CFTR:\nMeasurement of short circuit current in the presence of amiloride (ENaC channel inhibitor, 100 μM) followed by addition of 10 μM of the tritoqualine molecule and then addition of CFTR inh172 (10 μM, CFTR inhibitor) followed by addition of UTP (100 μM, validates the experiment by activating the calcium-sensitive Cl transport).\nMeasurement of short circuit current in the presence of amiloride (100 μM) and forskolin (0.05 μM activator of intracellular cAMP) then addition of 10 μM of the tritoqualine molecule then addition of CFTRinh172 (10 μM) then addition of UTP (100 μM).\nMeasurement of the short circuit current in the presence of CFTR Inh172 (10 μM) then addition of tritoqualine and forskolin (0.05 μM) then addition of UTP.\nThe inventors have prepared a 100 μM stock solution in DMSO. The compounds have been aliquoted per 100 μL and stored at −20° C.\nTritoqualine has been added to USSING cells at a dose of 10 μM in non-mutated cells FIG. 5."}, "basophils": {"test_system": "basophils", "test": "Flow CAST basophil degranulation (CD63+/CCR3+ flow cytometry)", "type": "cell-based, human", "excerpt": "The inventors have used the Kit-Flow CAST (www.buhlmannlabs.ch/products-solutions/cellular-allergy/flow-cast/) to test the action of tritoqualine on the inhibition of basophil degranulation. The marker for degranulation is CD63. Upon basophil activation, CD63 markers bound to intracytoplasmic granules will fuse with the plasma membrane. They are then expressed on the cell surface: activated basophils thereby become CD63+. Further to CD63, another marker specific to basophils makes it possible to better target them, it is CCR3 (chemokine receptor 3). The latter is always expressed by this cell type. Thus, the degranulation of basophils is identified in the flow cytometry window as CD63+ and CCR3+.\nIn a first step 2 patients have been sampled. substance P has been tested at a dose of 10 μmoles.\nAfter 30 minutes, degranulation in each of the tubes is around 7% as with the negative control."}, "NK 1 receptor": {"target": "T2, NK 1 receptor (Homo sapiens, UniProt P25103)", "T2 construct": "human NK1 tachykinin receptor in the astrocytoma cell line U 373 MG; endogenous in cells; host or cells: U 373 MG human astrocytoma cells (per the cited method)", "T2 sequence (P25103 whole entry)": "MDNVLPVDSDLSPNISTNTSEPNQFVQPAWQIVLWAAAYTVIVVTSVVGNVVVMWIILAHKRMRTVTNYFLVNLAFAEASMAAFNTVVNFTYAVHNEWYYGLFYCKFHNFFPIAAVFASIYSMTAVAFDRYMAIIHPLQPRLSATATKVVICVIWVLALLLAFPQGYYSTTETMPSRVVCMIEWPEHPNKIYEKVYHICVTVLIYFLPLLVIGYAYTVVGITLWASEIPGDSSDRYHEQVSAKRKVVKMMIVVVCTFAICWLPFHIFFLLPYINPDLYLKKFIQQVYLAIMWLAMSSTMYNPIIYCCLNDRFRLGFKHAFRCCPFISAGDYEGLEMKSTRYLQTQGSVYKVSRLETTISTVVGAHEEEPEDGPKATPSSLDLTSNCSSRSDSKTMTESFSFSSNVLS", "test": "NK 1 receptor binding (method of Heuillet et al.)", "settings": "FIG. 8", "procedure": "Tritoqualine has been tested on the NK 1 receptor according to the method described by Heuillet et al., Characterization of a human NK1 tachykinin receptor in the astrocytoma cell line U 373 MG. Heuillet E et al. Neurochem. 1993 March."}, "[1]": {"settings": "cited from earlier work"}, "histidine decarboxylase": {"target": "T3, histidine decarboxylase (Homo sapiens, UniProt P19113)", "T3 sequence (P19113 1-662)": "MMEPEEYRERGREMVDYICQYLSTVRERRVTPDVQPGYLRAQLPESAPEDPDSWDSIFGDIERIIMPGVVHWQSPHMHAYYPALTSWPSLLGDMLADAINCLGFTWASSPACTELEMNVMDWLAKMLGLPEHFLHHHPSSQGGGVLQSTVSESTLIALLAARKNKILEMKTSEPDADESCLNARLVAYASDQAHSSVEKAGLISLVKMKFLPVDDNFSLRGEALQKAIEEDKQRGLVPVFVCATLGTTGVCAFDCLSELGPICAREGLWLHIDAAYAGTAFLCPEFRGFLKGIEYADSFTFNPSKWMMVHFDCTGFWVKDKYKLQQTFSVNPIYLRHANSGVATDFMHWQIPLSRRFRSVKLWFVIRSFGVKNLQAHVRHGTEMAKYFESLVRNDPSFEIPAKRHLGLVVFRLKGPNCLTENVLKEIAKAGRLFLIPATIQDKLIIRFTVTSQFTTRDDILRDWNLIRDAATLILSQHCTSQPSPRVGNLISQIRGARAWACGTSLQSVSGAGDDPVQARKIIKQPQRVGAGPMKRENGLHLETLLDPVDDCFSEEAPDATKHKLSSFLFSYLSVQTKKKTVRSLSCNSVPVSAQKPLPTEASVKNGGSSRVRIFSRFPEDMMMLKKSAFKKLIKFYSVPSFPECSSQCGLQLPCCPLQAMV", "settings": "known anti-allergic activity; cited from earlier work"}}, "note": "Where two headings read alike, the source gives them in different places. Where no end group is shown, it is not given here."}
{"compound": "O=C(O)c1ccc(C=C2SC(=S)N(c3cccc(C(F)(F)F)c3)C2=O)cc1", "note": "[Inh172]", "values": [{"measurement": "effect of Inh172 on cell potential", "setting": "non-mutated CFTR; non-mutated epithelial cells, apical side", "result": "completely blocks"}, {"measurement": "effect of Inh172 on cell potential", "setting": "non-mutated CFTR; non-mutated lacrimal gland epithelial cells (second experiment)", "result": "completely blocks"}]}
{"compound": "substance P: NK 1 agonist (supplier Sigma-Aldrich) (RPKPQQFFGLM-NH2; UniProt P20366 58-68, looked up)", "values": [{"measurement": "CD63 present on the basophil (degranulation)", "setting": "basophils; substance P at 10 μmoles, basophils of 2 patients", "result": 70, "unit": "%"}]}
{"compound": "CCOc1c(N)c2c(c(OCC)c1OCC)C(C1c3c(cc4c(c3OC)OCO4)CCN1C)OC2=O", "note": "(stereo not drawn) [tritoqualine, AMINO-7 TRIETHOXY-4,5,6 OXO-1 DIHYDRO-1,3 ISOBENZOFURANNYL-3)-1METHOXY-8METHYL-2METHYLENEDIOXY-6,7TETRAHYDRO-,2,3,4ISOQUINOLINE]", "values": [{"measurement": "EC50", "setting": "non-mutated CFTR; apical pole, FIG. 2, read-out: EC50 activity, apical pole", "result": 3.42, "unit": "µM"}, {"measurement": "EC50", "setting": "non-mutated CFTR; basal pole, FIG. 3, read-out: EC50, basal pole", "result": 4.87, "unit": "µM"}, {"measurement": "short circuit current differential after addition of tritoqualine", "setting": "non-mutated CFTR; non-mutated epithelial cells, apical side, increases from 16", "result": "more than 20 μA/cm^2"}, {"measurement": "short circuit current differential after addition of tritoqualine", "setting": "non-mutated CFTR; non-mutated lacrimal gland epithelial cells, printed 'apical side' (second experiment), increases from 6.5", "result": "more than 7.5 μA/cm^2"}, {"measurement": "affinity (percent inhibition) on NK 1 receptor", "setting": "NK 1 receptor", "result": 97, "unit": "%"}, {"measurement": "degranulation after substance P in presence of tritoqualine", "setting": "basophils; tritoqualine 10 pmoles (FIG. 10: 10 μM), then substance P, after 30 minutes, as with the negative control", "result": "around 7%"}, {"measurement": "solubility in benzene and acetone", "setting": "[1]; benzene and acetone", "result": "sparingly soluble"}, {"measurement": "solubility in water", "setting": "[1]; water", "result": "Insoluble"}, {"measurement": "inhibitory action on histidine decarboxylase", "setting": "histidine decarboxylase", "result": "very weak"}]}
